Measurements: US20090143391A1, “Aryl and heteroaryl fused imidazo [1,5-a] pyrazines as inhibitors of phosphodiesterase 10” (priority 2007, published 2009)

Columns and labels:
PDE10 from pig striatum = PDE10 from pig striatum (Sus scrofa, UniProt A0A287B941); test: Inhibition of PDE10 from pig striatum (Method A / Method B), [3H]-cAMP SPA; assay type: biochemical
Method: Striatum from male Wistar rats (180-200 g), male hybrid pigs (150 kg) and male guinea pigs (CRL (HA), 500 g) respectively were collected and frozen at −70° C. […] The supernatant is called the cytosolic fraction and was removed and stored on ice. The pellet was resuspended in the same buffer, but containing 1% Triton and incubated for 45 min at 4° C. Both fractions were independently applied onto a 5 ml Hi Trap™ QHP column at the Äkta-FPLC. After washing the columns the bound PDE protein was eluted with an increasing sodium chloride gradient (0 mM-500 mM sodium chloride) in 50 mM Tris/Mg-buffer at 4° C. for the cytosolic fraction and in the presence of 1% Triton for the membrane fraction. […] The fractions with PDE10-activity were pooled and frozen in aliquots until use at −20° C. PDE10 activity was determined in a one step procedure in microtiter plates. The reaction mixture of 100 μl contained 50 mM Tris-HCl/5 mM MgCl2 buffer (pH=7.4) (Sigma, Deisenhofen, Germany; Merck, Darmstadt, Germany) 0.1 μM [^3H]-cAMP (Amersham, Buckinghamshire, UK) and the enzyme. Nonspecific activity was tested without the enzyme. The reaction was initiated by addition of the substrate solution and was carried out at 37 ° C. for 30 minutes. Enzymatic activity was stopped by addition of 25 μl YSi-SPA-beads (Amersham-Pharmacia). One hour later the mixture was measured in a liquid scintillation counter for microtiter plates (Microbeta Trilux). To pipette the incubation mixture a robot Biomek (Fa. Beckman) is used. […] The optimal amount of enzyme in the assay has been determined and optimised for each enzyme preparation and substrate separately before using the enzyme in compound testing. For determination of IC50 values the Hill-plot, 2-parameter-model, was used. […] Striatum from male hybrid pigs (150 kg) were collected and frozen at −70° C. […] The supernatant was removed and the pellet was resuspended in the same buffer, but containing 1% Triton and incubated for 45 min at 4° C. The membrane fraction was applied onto a 5 ml Hi Trap™ QHP column at the Äkta-FPLC. After washing the column the bound PDE protein was eluted with an increasing sodium chloride gradient (0 mM-500 mM sodium chloride) in 50 mM Tris/Mg-buffer at 4° C. in the presence of 1% Triton. […] The fractions with PDE10-activity were pooled and frozen in aliquots until use at −20° C. PDE10 activity was determined in a one step procedure in microtiterplates. The reaction mixture of 100 μl contained 50 mM Tris-HCl/5 mM MgCl2 buffer (pH=7.4) (Sigma, Deisenhofen, Germany; Merck, Darmstadt, Germany) 0.1 μM [3H]-cAMP (Amersham, Buckinghamshire, UK) and the enzyme. Nonspecific activity was tested without the enzyme. The reaction was initiated by addition of the substrate solution and was carried out at 37° C. for 30 minutes. Enzymatic activity was stopped by addition of 25 μl YSi-SPA-beads (Amersham-Pharmacia). One hour later the mixture was measured in a liquid scintillation counter for microtiterplates (Microbeta Trilux). To pipette the incubation mixture a robot Biomek (Fa. Beckman) is used. […] The optimal amount of enzyme in the assay has been determined and optimised for each enzyme preparation before using the enzyme in compound testing. For determination of IC50 values the Hill-plot, 2-parameter-model, was used.

human recombinant PDE10A = biological target: T1, human recombinant PDE10A (Homo sapiens, UniProt Q9Y233); test: Inhibition of human recombinant PDE10A (Method B), [3H]-cAMP SPA; assay type: biochemical; settings: read-out: PDE10 inhibition IC50 PDE10A human
T1 construct: made in house; host or cells: SF21 insect cells (baculovirus)
T1 sequence (Q9Y233 1-779 isoform Q9Y233-1): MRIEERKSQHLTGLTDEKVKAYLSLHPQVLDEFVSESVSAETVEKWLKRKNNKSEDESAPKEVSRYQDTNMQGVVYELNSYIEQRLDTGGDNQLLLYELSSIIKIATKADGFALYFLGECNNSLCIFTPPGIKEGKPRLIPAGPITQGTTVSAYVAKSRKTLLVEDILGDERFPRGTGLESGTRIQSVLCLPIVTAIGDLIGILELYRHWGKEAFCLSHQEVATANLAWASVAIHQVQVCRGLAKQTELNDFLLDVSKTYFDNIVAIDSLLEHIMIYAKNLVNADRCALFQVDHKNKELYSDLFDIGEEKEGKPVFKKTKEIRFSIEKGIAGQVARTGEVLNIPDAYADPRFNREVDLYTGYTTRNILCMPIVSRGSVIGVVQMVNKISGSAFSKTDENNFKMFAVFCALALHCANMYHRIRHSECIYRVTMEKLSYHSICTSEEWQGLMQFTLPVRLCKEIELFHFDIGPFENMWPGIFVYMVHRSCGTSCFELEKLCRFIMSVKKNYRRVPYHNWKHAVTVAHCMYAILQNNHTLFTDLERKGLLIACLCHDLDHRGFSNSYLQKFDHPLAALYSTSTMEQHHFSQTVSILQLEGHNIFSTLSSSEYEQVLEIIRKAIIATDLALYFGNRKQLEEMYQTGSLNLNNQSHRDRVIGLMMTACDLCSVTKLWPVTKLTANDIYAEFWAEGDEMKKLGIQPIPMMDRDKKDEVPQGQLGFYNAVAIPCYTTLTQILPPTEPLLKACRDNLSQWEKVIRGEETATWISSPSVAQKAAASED
Method: The gene was than inserted into a baculovirus vector, ligated with the baculovirus DNA. The enzyme-protein was expressed in SF21-cells. The enzyme was isolated from these cells by harvesting the cells by a centrifugation at 200 g to collect the cells. The cells were resuspended in 50 mM Tris-HCl/5 mM MgCl2 buffer (pH=7.4) and lysed by a sonication of the cells. The cytosolic PDE10A was obtained by a centrifugation at 48000 g for 1 h in the supernatant and stored at −70 ° C. PDE10 activity was determined in a one step procedure in microtiterplates. […] Nonspecific activity was tested without the enzyme. The reaction was initiated by addition of the substrate solution and was carried out at 37° C. for 30 minutes. Enzymatic activity was stopped by addition of 25 μl YSi-SPA-beads (Amersham-Pharmacia). One hour later the mixture was measured in a liquid scintillation counter for microtiterplates (Microbeta Trilux). To pipette the incubation mixture a robot Biomek (Fa. Beckman) is used. […] For determination of IC50 values the Hill-plot, 2-parameter-model, was used.

[1] = tested on: apomorphine-induced stereotypies; settings: rats; cited from earlier work
[2] = tested on: haloperidol-induced catalepsy; settings: rats; cited from earlier work
[3] = tested on: dopamine concentration in rat brain; settings: cited from earlier work

Structure (SMILES)	IC50 (PDE10 from pig striatum) [nM]	melting point [°C]	IC50 (human recombinant PDE10A) [nM]	effect on apomorphine-induced stereotypies [1]	effect on haloperidol-induced catalepsy [2]	effect on dopamine concentration in rat brain [3]
CCCc1nc(C)c2c(C#N)nc3ccc(F)cc3n12 [Example 1, 8-Fluoro-3-methyl-1-propyl-imidazo(1,5-a)quinoxaline-4-carbonitrile]	10 to 100	–	–	–	–	–
CCc1nc(C)c2c(NS(C)(=O)=O)nc3ccccc3n12 [Example 2, N-(1-Ethyl-3-methyl-imidazo(1,5-a)quinoxalin-4-yl)-methanesulfonamide]	≥ 100	–	–	–	–	–
CCc1nc(C)c2c(NS(C)(=O)=O)nc3ccc(F)cc3n12 [Example 3, N-(1-Ethyl-8-fluoro-3-methyl-imidazo(1,5-a)quinoxalin-4-yl)-methanesulfonamide]	≥ 100	268 to 269	–	–	–	–
CCCc1nc(C)c2c(NS(C)(=O)=O)nc3ccc(F)cc3n12 [Example 4, N-(8-Fluoro-3-methyl-1-propyl-imidazo(1,5-a)quinoxalin-4-yl)-methanesulfonamide]	10 to 100	277 to 280	–	–	–	–
Cc1nc(-c2ccccc2Cl)n2c1c(NS(C)(=O)=O)nc1ccc(F)cc12 [Example 5, N-(1-(2-Chlorphenyl)-8-fluoro-3-methyl-imidazo(1,5-a)quinoxalin-4-yl)-methanesulfonamide]	10 to 100	–	–	–	–	–
Cc1nc(C2CCCCC2)n2c1c(NS(C)(=O)=O)nc1ccc(F)cc12 [Example 6, N-(1-Cyclohexyl-8-fluoro-3-methyl-imidazo(1,5-a)quinoxalin-4-yl)-methanesulfonamide]	10 to 100	291 to 293	–	–	–	–
CCc1nc(C)c2c(NS(C)(=O)=O)nc3ccc(N4CCCCC4)cc3n12 [Example 7, N-[1-Ethyl-3-methyl-8-(piperidin-1-yl)-imidazo(1,5-a)quinoxalin-4-yl]-methanesulfonamide]	10 to 100	223 to 227	–	–	–	–
COc1ccc2nc(C#N)c3c(C)nc(C4CCCCC4)n3c2c1 [Example 8, 1-Cyclohexyl-8-methoxy-3-methyl-imidazo[1,5-a]quinoxaline-4-carbonitrile]	10 to 100	244 to 248	≥ 100	–	–	–
CCCc1nc(C)c2c(NS(C)(=O)=O)nc3ccc(OC)cc3n12 [Example 9, N-(8-Methoxy-3-methyl-1-propyl-imidazo[1,5-a]quinoxalin-4-yl)-methanesulfonamide]	–	234 to 237	10 to 100	–	–	–
COc1ccc2nc(NS(C)(=O)=O)c3c(C)nc(C4CCCCC4)n3c2c1 [Example 10, N-(1-Cyclohexyl-8-methoxy-3-methyl-imidazo[1,5-a]quinoxalin-4-yl)-methanesulfonamide]	–	287 to 288	10 to 100	–	–	–
CCCc1nc(C)c2c(NS(C)(=O)=O)nc3ccc(OCC4CC4)cc3n12 [Example 11, N-(8-Cyclopropylmethoxy-3-methyl-1-propyl-imidazo[1,5-a]quinoxalin-4-yl)-methanesulfonamide]	–	240 to 241	≤ 10	–	–	–
Cc1nc(C2CCCCC2)n2c1c(NS(C)(=O)=O)nc1ccc(OCC3CC3)cc12 [Example 12, N-(1-Cyclohexyl-8-cyclopropylmethoxy-3-methyl-imidazo[1,5-a]quinoxalin-4-yl)-methanesulfonamide]	≤ 10	259 to 261	10 to 100	–	–	–
Cc1nc(C2CCCCC2)n2c1c(NS(C)(=O)=O)nc1ccc(OCc3ccc4ccccc4n3)cc12 [Example 13, N-[1-Cyclohexyl-3-methyl-8-(quinolin-2-ylmethoxy)-imidazo[1,5-a]quinoxalin-4-yl]-methanesulfonamide]	≤ 10	255 to 258	≤ 10	–	–	–
COc1ccc2c(c1)nc(NS(C)(=O)=O)c1c(C)nc(-c3ccccc3Cl)n12 [Example 14, N-[1-(2-Chloro-phenyl)-7-methoxy-3-methyl-imidazo[1,5-a]quinoxalin-4-yl]-methanesulfonamide]	10 to 100	277 to 278	10 to 100	–	–	–
CCCc1nc(C)c2c(NS(C)(=O)=O)nc3cc(OC)ccc3n12 [Example 15, N-(7-Methoxy-3-methyl-1-propyl-imidazo[1,5-a]quinoxalin-4-yl)-methanesulfonamide]	10 to 100	222 to 226	10 to 100	–	–	–
CCc1nc(C)c2c(Cl)nc3ccc(N4CCCCC4)cc3n12 [Example B2, 4-Chloro-1-ethyl-3-methyl-8-piperidin-1-yl-imidazo(1,5-a)quinoxaline]	10 to 100	160 to 163	–	–	–	–
CCc1nc(C)c2c(Cl)nc3ccccc3n12 [Example B3]	10 to 100	125 to 128	–	–	–	–
CCCc1nc(C)c2c(Cl)nc3ccc(F)cc3n12 [Example B6, 4-Chloro-8-fluoro-3-methyl-1-propyl-imidazo(1,5-a)quinoxaline]	10 to 100	133 to 135	–	–	–	–
Cc1nc(C2CCCCC2)n2c1c(Cl)nc1ccc(F)cc12 [Example B7]	10 to 100	205 to 210	–	–	–	–
Cc1nc(C2CCCCC2)n2c1c(Cl)nc1ccc(Cl)cc12 [Example B9]	≥ 100	244 to 248	–	–	–	–
COc1ccc2nc(Cl)c3c(C)nc(C4CCCCC4)n3c2c1 [Example B11]	–	212 to 215	10 to 100	–	–	–
CCCc1nc(C)c2c(Cl)nc3ccc(OCC4CC4)cc3n12 [Example B12]	–	103 to 105	10 to 100	–	–	–
Cc1nc(C2CCCCC2)n2c1c(Cl)nc1ccc(OCC3CC3)cc12 [Example B13]	–	165 to 168	≥ 100	–	–	–
CCCc1nc(C)c2c(Cl)nc3cc(OC)ccc3n12 [Example B15]	–	154 to 159	10 to 100	–	–	–
COc1ccc(Cc2nccc3cc(OC)c(OC)cc23)cc1OC [Papaverine]	–	–	–	reduces apomorphine-induced stereotypies	increases haloperidol-induced catalepsy	reducing dopamine concentration
